In patent US9375436B2, “Androgen treatment in females” (priority 2004, dated 2016):

Tested on: women with diminished ovarian reserve
Test: AMH as reflection of ovarian reserve after DHEA supplementation (Examples 9 and 12)
Type: in vivo, human
Method: The study is a cross-sectional analysis of 120 consecutive women with DOR in whom AMH levels were evaluated as a reflection of OR. They presented during 2007/8 to our center for initial infertility consultation. First AMH levels obtained were used for INITIAL analysis. Post DHEA initiation, exposure to the supplement ranged from 34 to 119 days (mean 73±27 days). Women with two or more consecutive AMH levels comprised patients in the longitudinal study evaluation of OR after initiation of DHEA supplementation. […]
FSH and estradiol were evaluated by standard enzyme-linked immunoabsorbent assay (ELISA; AIA-600II, Tohso, Tokyo, Japan). […] Theoretical sensitivity, or minimum detection limit, as calculated by interpolation of the mean plus two standard deviations (SD) of eight replicates of the 0 ng/ml MIS/AMH Standard, is 0.006 ng/ml. […]
Data are shown as means±standard deviation (SD) or as raw numbers and percentages. […] Demographic and biochemical data were analyzed with paired or unpaired Student's t-test. […]
The study is a cross-sectional and longitudinal analysis of 120 consecutive women with diminished ovarian reserve, in whom AMH concentrations were evaluated as a reflection of ovarian reserve. […]
FSH and oestradiol were evaluated by standard enzyme-linked immunoabsorbent assay (ELISA; AIA-600II, Tohso, Tokyo, Japan). […]

C[C@]12CC[C@H](O)CC1=CC[C@@H]1[C@@H]2CC[C@]2(C)C(=O)CC[C@@H]12 [DHEA, Dehydroepiandrosterone]
clinical pregnancy rate (55 women who reached IVF, 13 conceived): 23.64% | AMH at highest measured peak (longitudinal evaluation, n=55, baseline before DHEA 0.22±0.22, DHEA 25 mg TID): 0.35 ± 0.03 ng/mL
